{"source": "patent US11389501B1", "about": "“Method for treating eye inflammation using anti-inflammatory composition having bioactive compound” (TCI CO., LTD., priority 2021, dated 2022)", "format_in_all_cases": "cell-based", "key": {"[1]": {"tested_on": "IL-8 gene", "assay": "qRT-PCR of IL-8 gene expression in blue light-irradiated human retinal pigment epithelial cells", "conditions": "ARPE-19 cells, 0.0125 mg/ml, incubated 24 h, then blue light 15 min; control group = 100%, comparative group (blue light only) 121.77%", "from_the_text": "(§1) In the present embodiment, an RNA extraction kit, a reverse transcriptase, and a KAPA SYBR® FAST qPCR reagent kit were used in conjunction with a quantitative PCR instrument to determine the changes in expression level of the genes associated with eye protection and anti-inflammation in human retinal pigment epithelial cells treated with the peptide having the amino acid sequence of SEQ ID NO.: 1. Further, the efficacy of the bioactive compound obtained from the cowhide peptides of the present disclosure in resisting blue light and preventing inflammatory reactions was confirmed.\n(§2) 1. Cell strain: Human retinal pigment epithelial cell ARPE-19 (purchased from ATCC, product number CRL-2302). […]\n(§3) The cell membranes of each group of human retinal pigment epithelial cells (i.e., the control group, the comparative group, and the experimental group) resulted from the cell treatment stage were broken with cell lysates. […] Then the cDNA of each group was subjected to a quantitative real-time reverse transcription polymerase chain reaction (qRT-PCR) using the ABI StepOnePlus™ Real-time PCR system (Thermo Fisher Scientific), KAPA SYBR FAST (Sigma, USA, product number 38220000000) and the primers listed in Table 3 (SEQ 1D NO.: 2 to SEQ ID NO.: 9) to assess the expression of VEGFA gene. […] Gene quantification was performed using a 2^−ΔCt method. […]"}, "[2]": {"tested_on": "IL-1β gene", "assay": "qRT-PCR of IL-1β gene expression in blue light-irradiated human retinal pigment epithelial cells", "conditions": "ARPE-19 cells, 0.0125 mg/ml, incubated 24 h, then blue light 15 min; control group = 100%, comparative group (blue light only) 109.21%", "from_the_text": "as §1, §2, §3"}, "[3]": {"tested_on": "VEGFA gene", "assay": "qRT-PCR of VEGFA gene expression in blue light-irradiated human retinal pigment epithelial cells", "conditions": "ARPE-19 cells, 0.0125 mg/ml, incubated 24 h, then blue light 15 min; control group = 100%, comparative group (blue light only) 109.47%", "from_the_text": "as §1, §2, §3"}}, "data": [{"smiles": "CC(C)C[C@H](NC(=O)[C@H](CO)NC(=O)[C@@H](NC(=O)[C@@H]1CCCN1C(=O)[C@H](CC(C)C)NC(=O)CNC(=O)[C@H](CO)NC(=O)[C@@H]1CCCN1C(=O)[C@H](CC(C)C)NC(=O)[C@H](CCCCN)NC(=O)C(N)C(C)O)C(C)C)C(=O)O", "note": "(stereo partly drawn) [cowhide peptide, TKLPSGLPVSL]", "values": [{"measurement": "expression of IL-8 gene relative to the control group", "setting": "[1]", "value": 88.29, "unit": "%"}, {"measurement": "expression of IL-1β gene relative to the control group", "setting": "[2]", "value": 66.36, "unit": "%"}, {"measurement": "expression of VEGFA gene relative to the control group", "setting": "[3]", "value": 84.07, "unit": "%"}]}]}
